PubChem BioAssay AID1645848
Values after ≈ are worked out from the molar mass of the structure shown.

Conditions: buffer; pH 7.4; 6.0 h; 150.0 µM

Structure (SMILES) | solubility kinetic [µg/mL]
CC(C)c1ccc(S(=O)(=O)c2cnc(SCC(=O)Nc3ccc4c(c3)OCCO4)[nH]c2=O)cc1 | > 74
CCC(C)N(C)C(=O)c1cc2ccccc2c(-c2ccccc2Cl)n1 (stereo not drawn) | 38.6 (≈ 109 µM)
Nc1nc2c(s1)C(c1ccc(Br)cc1)CC(=O)N2 (stereo not drawn) | 6.66 (≈ 20.6 µM)
C=Cc1ccc(C(=O)N2CCCC(CCC(=O)N3CCN(c4ccccn4)CC3)C2)cc1 (stereo not drawn) | > 64
Clc1ccccc1-c1nccc(-n2ccnc2)n1 | 7.3 (≈ 28.4 µM)
Cc1ccc(S(=O)(=O)Nc2cnccc2C(=O)Nc2nc(-c3cc4ccccc4o3)cs2)cc1 | 0.521 (≈ 1.06 µM)
Cc1cc(C)nc(NC(=S)N2CCN(c3nccc(C(F)(F)F)n3)CC2)c1 | 7.21 (≈ 18.2 µM)
Fc1cc(Nc2nc(-c3ccncc3)nc3ccccc23)ccc1-c1ccnc(C(F)(F)F)c1 | < 1
CC1=C(C(=O)Nc2nncs2)C2(CCCC2)N=C(Nc2nc3ccccc3o2)N1 | < 1
COc1ccc(OC)c(N2C(=O)C(Cl)=C(N3CCCCC3)C2=O)c1 | < 1
C#CCNC(=O)c1nc(-c2ccc([S+](C)(=O)[O-])cc2)c2cnccn12 | < 1
O=S(=O)(c1ccc(Cl)cc1)c1ccccn1 | 31.8 (≈ 125 µM)
COC(=O)c1c(NC(=O)Cc2coc3cc(C)ccc23)sc2c1CCC2 | < 1
Clc1ccc2ncc(-c3cccc(NC4CNC4)n3)n2c1 | > 44
COc1cc(CNCCO)cc(Cl)c1OCc1ccc(Cl)cc1Cl.Cl | 40
Cc1cccc(-n2cnc3cc(C(=O)N4CCCC(C(C)C)C4)ccc32)c1 (stereo not drawn) | 5.59 (≈ 15.5 µM)
COc1ccc(-c2nc3c(c(SCC(=O)Nc4ccc(C(=O)O)cc4)n2)Cc2ccccc2O3)cc1 | 1.45 (≈ 2.9 µM)
COc1ccc(NC(=O)c2ccc[nH]2)cc1S(=O)(=O)Nc1ccc(Br)cc1 | < 1
O=C(Nc1ccc(S(=O)(=O)Nc2nccs2)cc1)c1cc(-c2ccccc2)nc2ccccc12 | 0.098 (≈ 0.201 µM)
CN(C)c1cccc(-c2c3c(=O)n(-c4ccccc4Cl)[nH]c3cc(=O)n2C)c1 | 46.5 (≈ 118 µM)
Cc1ccc(-n2nc3c(=O)n(CCCC(=O)NCc4ccc(F)cc4)nc(C)c3c2C)cc1 | 5.86 (≈ 13.1 µM)
Cc1ccc(-c2csc(NC(=O)c3ccccc3NS(=O)(=O)c3ccc(C)cc3)n2)cc1 | < 1
Cc1cnc(CNc2nc(-c3cccc(NS(C)(=O)=O)c3)nc3ccccc23)cn1 | 44 (≈ 105 µM)
COc1ccc(NC(=O)c2[nH]c(C)c(C(C)=O)c2C)cc1S(=O)(=O)N1CCCCC1 | 34.2 (≈ 79 µM)
COc1ccc(NC(=O)c2[nH]c(C)c(C(C)=O)c2C)cc1S(=O)(=O)Nc1ccc(C#N)cc1 | 4.06 (≈ 8.7 µM)

Structure (SMILES) | solubility kinetic [µg/mL]
NC(=O)C1CCN(c2ncc(-c3ccc4c(c3)OCCO4)s2)CC1 | 4.52 (≈ 13.1 µM)
Nc1ncnc2c1C(=O)N(c1ccc(C3CCC(CC(=O)O)CC3)cc1)CCO2 (stereo not drawn) | > 59
COc1ccc(-c2cc(-c3cccc4[nH]ncc34)cn3cncc23)cn1 | 5.52 (≈ 16.2 µM)
CC(=O)N1CCC2(CCCN(c3ccc(-c4ccccc4)cc3)C2)CC1 | < 1
NC(=O)C1CCN(c2nnc(-c3ccc(Br)cc3)s2)CC1 | 8.24 (≈ 22.4 µM)
Clc1ccc2ncc(-c3cccc(NC4CCNC4)n3)n2c1 (stereo not drawn) | > 46
Cc1noc(C)c1-c1ccc2ncnc(NCc3cccc(Cl)c3)c2c1 | < 1
Cc1ccc(SC2=NS(=O)(=O)c3ccccc32)c(C)c1 | < 1
O=C(C1CCN(c2nc(-c3ccc(Br)cc3)cs2)CC1)N1CCOCC1 | 7.27 (≈ 16.7 µM)
COc1cc2c(Nc3ccc(Br)cc3F)ncnc2cc1OCC1CCN(C)CC1 | > 70
Nc1nc(Nc2ccc(S(N)(=O)=O)cc2)n(C(=S)Nc2c(F)cccc2F)n1 | < 1
COc1ccc(NC(=O)C23CC4CC(CC(C4)C2)C3)cc1[S+](=O)([O-])Nc1ccc(Br)cc1 | < 1
CC1(C)CCC(c2ccc(Cl)cc2)=C(CN2CCN(c3ccc(C(=O)NS(=O)(=O)c4ccc(N[C@H](CCN5CCOCC5)CSc5ccccc5)c(S(=O)(=O)C(F)(F)F)c4)cc3)CC2)C1 | < 1
OCCNc1ncnc2c1ncn2[C@@H]1O[C@@H](CO)[C@H](O)[C@@H]1O | > 46
O=C(CCc1ccccc1)Nc1ccc(S(=O)(=O)Nc2nccs2)cc1 | 10.6 (≈ 27.5 µM)
Fc1cnc(-c2ccccc2C(F)F)nc1NCc1ccc(-n2ccnn2)cc1 | < 1
NC(=O)c1cccc(-c2cc(Nc3ccc(OC(F)(F)F)cc3)ncn2)c1 | < 1
CC(=O)Nc1ncc(S(=O)(=O)Nc2cnccc2C(=O)Nc2nc(-c3ccccc3)cs2)s1 | 56.1 (≈ 112 µM)
O=C(Cn1c2ncccc2c(=O)n1-c1ccccc1)Nc1ccc(Cl)cc1C(F)(F)F | < 1
CCc1ccc(NC(=O)c2[nH]c(C)c(C(C)=O)c2C)cc1S(=O)(=O)Nc1cccc(C#N)c1 | 1.67 (≈ 3.59 µM)
O=C(Nc1nc(-c2ccccc2)cs1)c1ccncc1NS(=O)(=O)c1ccccc1F | 38.8 (≈ 85.4 µM)
Cc1nn(CCc2nc(-c3ccccc3)cs2)c2[nH]c(=O)cc(C(F)(F)F)c12 | 1.26 (≈ 3.12 µM)
O=C(c1ccc2c(c1)ncn2-c1ccc(Cl)cc1)N1CCCCC1 | > 50
COc1ccc(C(=O)Nc2ccc3c(c2)N(C2CCCC2)C(=O)c2ccccc2S3)cc1OC | < 1
CC(=O)NCc1ccc(-c2csc(Nc3cc(C)cc(C)c3)n2)o1 | 1.14 (≈ 3.33 µM)

Structure (SMILES) | solubility kinetic [µg/mL]
O=C1CCc2ccc(OCCCCN3CCN(c4cccc(Cl)c4Cl)CC3)cc2N1 | < 1
NC(=O)C(=O)N/N=C/c1ccc([N+](=O)[O-])o1 | > 33
NC(=O)C1CCN(c2nc(-c3ccc([N+](=O)[O-])cc3)cs2)CC1 | 1.7 (≈ 5.1 µM)
COCCCOc1ccnc(CS(=O)c2nc3ccccc3[n-]2)c1C (stereo not drawn) | 19.2
Cc1noc(C)c1-c1ccc(-c2cc(C(N)=O)c(NC(N)=O)s2)c(O[C@H]2CCNC2)c1 | 38.5 (≈ 87.3 µM)
O=C(Nc1ccccc1C(=O)Nc1ccccc1C(=O)NCc1ccco1)c1ccco1 | 4.45 (≈ 10.4 µM)
CCN(c1ccccc1)S(=O)(=O)c1cc(C(=O)Nc2ccc(Br)cc2)ccc1F | < 1
CN(C)CCCn1cc(C2=C(c3c[nH]c4ccccc34)C(=O)NC2=O)c2ccccc21 | > 41
O=C(Nc1cc(C(F)(F)F)ccc1N1CCOCC1)c1n[nH]c(=O)c2ccccc12 | < 1
O=C(Nc1ccc(S(=O)(=O)Nc2nccs2)cc1)c1cccc2ccccc12 | 1.39 (≈ 3.39 µM)
CC(C)CCNC(=O)[C@H](CC(C)C)NC(=O)[C@H]1O[C@@H]1C(=O)O | 33 (≈ 105 µM)
CC(=O)Nc1ncc(S(=O)(=O)N2CCOCC2)s1 | 26.6 (≈ 91.1 µM)
Fc1ccc(-c2csc3ncnc(NCc4ccc5c(c4)OCO5)c23)cc1 | 0.226 (≈ 0.596 µM)
Cc1n[nH]c(C)c1CCc1nc2c3ccccc3nc(SCC(=O)Nc3ccc(F)cc3)n2n1 | < 1
COc1ccc(C2C=C(c3ccc(Cl)cc3)Nc3nc(-c4ccc(Cl)cc4)nn32)cc1 (stereo not drawn) | < 1
N#Cc1ccc(NS(=O)(=O)c2ccc(NC(=O)Cc3ccc(F)c(Cl)c3)cc2)cc1 | < 1
Cn1nc(-c2ccccc2F)c2cc(C(=O)Nc3cc(F)ccc3F)sc21 | < 1
O=[S+]([O-])(Nc1nccs1)c1ccc(NCc2cccc3c2NCC3)cc1 | > 57
Oc1ccc(CNc2ccccc2Br)c2cccnc12 | 8.3 (≈ 25.2 µM)
Cc1sc(NC(=O)Cc2ccc3c(c2)OCO3)nc1-c1ccc2c(c1)CCN2C(=O)c1ccccc1C(F)(F)F | < 1
O=C1CCCC2=C1C1(CCCC1)N=C(Nc1nc3cc(Cl)ccc3o1)N2 | < 1
CCNC(=O)c1noc(-c2cc(C(C)C)c(O)cc2O)c1-c1ccc(CN2CCOCC2)cc1 | > 69
COc1ccc(-c2ccc3nc(-c4ccccc4C)oc3c2)c(OC)c1OC | < 1
Cn1cc(Nc2cnccc2C(=O)O)c2cccnc21 | 32.6 (≈ 122 µM)
COc1cc(Nc2nc(-c3ccncc3)nc3ccccc23)ccc1N1CCN(C)CC1 | > 63

Structure (SMILES) | solubility kinetic [µg/mL]
NS(=O)(=O)c1ccc(Cc2c(-c3cccc(-c4ccccc4)c3)nn(-c3nc(C(=O)O)cs3)c2CC2CC2)cc1 | > 84
COc1ccc(CCNC(=O)c2cc3c(=O)n4ccccc4nc3n(CCCN3CCOCC3)c2=N)cc1 | > 76
CN1C(=O)c2ccccc2[S@](=O)c2ccc(C(=O)NCCc3cccs3)cc21 | 45.9 (≈ 112 µM)
CC1=C[C@@H](CN2C(=O)C(C)=C(C)C2=O)[C@H](C(C)C)C[C@H]1Cc1nc2c(C)cccc2[nH]1 | 3.65 (≈ 8.7 µM)
O=C(c1ccc2ccccc2c1)N1CCN(c2ccc(O)cc2)CC1 | 27.5 (≈ 82.7 µM)
CN(Cc1ccccc1)C(=O)C1CCN(Cc2cccc3ccccc23)CC1 | > 55
Cc1ccc(C)c(NC2=C(c3ccc(C(F)(F)F)cc3)C(=O)c3ccccc32)c1 | < 1
CC(=O)c1c(C)[nH]c(C(=O)Nc2cccc(S(=O)(=O)Nc3ccc(Br)c(F)c3)c2)c1C | < 1
Cc1cccc(-n2nc(C)c3c2NC(=O)CSC3c2ccccc2Cl)c1 (stereo not drawn) | 2.15 (≈ 5.61 µM)
COc1cc2nc(N3CCCC3)nc(NCCCCCN3CCCC3)c2cc1OC | > 61
Cc1c(C(=O)OCCOc2ccccc2)[nH]c2c1C(=O)CC(c1ccccc1)C2 (stereo not drawn) | < 1
CCOc1ccccc1CNS(=O)(=O)c1ccc(-c2cnc(C3CC3)o2)cc1 | < 1
COc1ccc(CCn2c(N)cc(=O)[nH]c2=S)cc1OC | > 45
CC1=C(C(=O)Nc2ccccc2)C(c2ccccc2Cl)N=C(Nc2nc3ccccc3o2)N1 (stereo not drawn) | < 1
CN(C)c1ccccc1-c1csc(N2CCC(C(N)=O)CC2)n1 | > 49
O=S(=O)(Nc1cccc2ccccc12)c1ccc(NCc2cccc(Cl)c2O)cc1 | < 1
Nc1nc2c(s1)C(c1c(Cl)cccc1Cl)CC(=O)N2 (stereo not drawn) | < 1
Cc1ccc(-c2cc(C(=O)Nc3cccc(S(N)(=O)=O)c3)c3ccccc3n2)cc1C | < 1
CCOc1ccc(CCNC(=O)c2cc3ccccc3n2CCN2CCOCC2)cc1OCC | 47.5 (≈ 102 µM)
Fc1ccc(Nc2nc(Nc3ccncc3)nc3ccccc23)cc1F | 2.19 (≈ 6.25 µM)
Cc1nc(NC(=O)C2CC(=O)N(c3n[nH]c4cc(Br)ccc34)C2)sc1C (stereo not drawn) | < 1
COc1ccc2c(ccn2CCC(=O)Nc2ccc3c(c2)C(=O)N2CCC[C@H]2C(=O)N3)c1 | > 43
NC(=O)C1CCN(c2nc(-c3ccc(OCc4ccccc4)cc3)cs2)CC1 | < 1
